The text below walks through data of EP1500391A1, “Therapeutic use of bicycloheptane derivatives” (NEURO3D, priority 2003, dated 2005).

Read-outs that look alike come from different tables or passages of the source.

The inhibition is the percentage by which the read-out fell short of the control.

The target in assay [1] is human dopamine D2S receptor (Homo sapiens, UniProt P14416). In words: D2 radioligand binding assay ([3H]spiperone). As to conditions: read-out: %inhibition D2.
Assay [2] concerns the target human dopamine D3 receptor (Homo sapiens, UniProt P35462). In words: D3 radioligand binding assay ([3H]spiperone). As to conditions: read-out: %inhibition D3.
Experimental: Nonspecific binding was determined in the presence of 10 µM (+)butaclamol. Following incubation, the samples were filtered rapidly under vacuum through glass fiber filters (GF/B, Packard) presoaked with 0.3% PEI and rinsed several times with ice-cold 50 mM Tris-HCl using a 96-sample cell harvester (Unifilter, Packard). The filters were dried then counted for radioactivity in a scintillation counter (Topcount, Packard) using a scintillation cocktail (Microscint 0, Packard). The specific ligand binding to the receptor is defined as the difference between the total binding and the non specific binding determined in the presence of an excess of unlabelled ligand. The results are expressed as a percentage of control specific binding and as a percentage inhibition of control specific binding obtained in the presence of the compounds.
Assay [3] deals with non-selective sigma receptor. The assay is described as follows: σ radioligand binding assay ([3H]DTG). The conditions noted are these: inhibition of control specific binding; at 1µM (concentration printed only in head of Cpd A); rat cerebral cortex.
Assay [4] has as its target T1, human 5-HT2A receptor (Homo sapiens, UniProt P28223).
T1 construct: expressed in transfected cells; host or cells: HEK-293 cells
The assay is described as follows: 5HT2a radioligand binding assay ([3H]ketanserin). As to conditions: inhibition of control specific binding; at 1µM (concentration printed only in head of Cpd A); human recombinant.

Assay [5] has as its target T2, human 5-HT2C receptor (Homo sapiens, UniProt P28335).
T2 construct: expressed in transfected cells; host or cells: CHO cells
T2 sequence (P28335 33-458): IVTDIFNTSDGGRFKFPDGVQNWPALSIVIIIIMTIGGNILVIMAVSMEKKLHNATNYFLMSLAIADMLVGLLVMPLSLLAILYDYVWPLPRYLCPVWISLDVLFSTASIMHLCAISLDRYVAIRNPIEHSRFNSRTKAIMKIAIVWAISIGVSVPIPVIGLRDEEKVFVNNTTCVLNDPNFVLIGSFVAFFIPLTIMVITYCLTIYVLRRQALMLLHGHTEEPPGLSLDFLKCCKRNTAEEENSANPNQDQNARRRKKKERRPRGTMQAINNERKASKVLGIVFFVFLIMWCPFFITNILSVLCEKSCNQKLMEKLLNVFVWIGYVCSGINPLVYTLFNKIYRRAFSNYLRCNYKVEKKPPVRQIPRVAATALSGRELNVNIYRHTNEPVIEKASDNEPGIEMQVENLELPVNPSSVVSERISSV
In words: 5HT2c radioligand binding assay ([3H]mesulergine). The conditions noted are these: inhibition of control specific binding; at 1µM (concentration printed only in head of Cpd A); transfected CHO cells.

For assay [6], the target named is human 5-HT6 receptor (Homo sapiens, UniProt P50406). In words: 5HT6 radioligand binding assay ([3H] LSD). As to conditions: read-out: %inhibition 5HT6.
human 5-HT6 receptor, sequence (P50406 whole entry): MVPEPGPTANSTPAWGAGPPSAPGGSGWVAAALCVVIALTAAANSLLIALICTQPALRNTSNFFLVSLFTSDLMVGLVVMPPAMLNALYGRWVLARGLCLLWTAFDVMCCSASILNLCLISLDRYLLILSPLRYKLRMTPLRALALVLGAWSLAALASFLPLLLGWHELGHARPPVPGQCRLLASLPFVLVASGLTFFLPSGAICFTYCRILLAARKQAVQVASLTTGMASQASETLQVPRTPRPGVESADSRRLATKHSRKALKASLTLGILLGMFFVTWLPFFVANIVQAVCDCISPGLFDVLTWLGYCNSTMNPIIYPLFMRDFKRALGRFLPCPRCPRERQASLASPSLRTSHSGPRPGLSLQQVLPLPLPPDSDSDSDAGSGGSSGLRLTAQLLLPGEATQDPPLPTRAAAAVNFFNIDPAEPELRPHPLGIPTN
Experimental: 5HT6 ASSAY : Evaluation of the affinity of compounds for the human 5-HT6 receptor in transfected HEK 293 cells determined in a radioligand binding assay. Cell membrane homogenates (15-20 µg protein) were incubated for 60 min at 37°C with 2 nM [^3H] LSD in the absence or presence of the test compound in a buffer containing 50 mM Tris-HCl (pH 7.4), 10 mM MgCl2 and 0.5 mM EDTA. Nonspecific binding was determined in the presence of 100 µM 5-HT. Following incubation, the samples were filtered rapidly under vacuum through glass fiber filters (GF/B, Packard) presoaked with 0.3% PEI and rinsed several times with ice-cold 50 mM Tris-HCl using a 96-sample cell harvester (Unifilter, Packard). The filters were dried then counted for radioactivity in a scintillation counter (Topcount, Packard) using a scintillation cocktail (Microscint 0, Packard).
The specific ligand binding to the receptor is defined as the difference between the total binding and the non specific binding determined in the presence of an excess of unlabelled ligand. The results are expressed as a percentage of control specific binding and as a percentage inhibition of control specific binding obtained in the presence of the compounds.
Where [7] appears, read: inhibition of control specific binding, at 1µM (concentration printed only in head of Cpd A), transfected CHO cells.

T1 sequence (P28223 whole entry): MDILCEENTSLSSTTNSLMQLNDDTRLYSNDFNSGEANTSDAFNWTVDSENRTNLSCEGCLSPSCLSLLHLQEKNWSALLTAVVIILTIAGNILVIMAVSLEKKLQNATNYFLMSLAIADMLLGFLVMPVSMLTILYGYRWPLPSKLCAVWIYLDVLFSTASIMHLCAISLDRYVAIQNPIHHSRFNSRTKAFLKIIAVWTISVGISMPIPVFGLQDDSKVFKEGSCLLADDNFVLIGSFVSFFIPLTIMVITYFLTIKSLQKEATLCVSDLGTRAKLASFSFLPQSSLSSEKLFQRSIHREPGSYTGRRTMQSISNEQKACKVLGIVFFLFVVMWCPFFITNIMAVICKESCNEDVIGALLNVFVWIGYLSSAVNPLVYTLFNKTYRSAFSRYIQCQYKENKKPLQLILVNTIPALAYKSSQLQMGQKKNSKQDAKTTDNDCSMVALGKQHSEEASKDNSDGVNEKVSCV
human dopamine D3 receptor, sequence (P35462 whole entry): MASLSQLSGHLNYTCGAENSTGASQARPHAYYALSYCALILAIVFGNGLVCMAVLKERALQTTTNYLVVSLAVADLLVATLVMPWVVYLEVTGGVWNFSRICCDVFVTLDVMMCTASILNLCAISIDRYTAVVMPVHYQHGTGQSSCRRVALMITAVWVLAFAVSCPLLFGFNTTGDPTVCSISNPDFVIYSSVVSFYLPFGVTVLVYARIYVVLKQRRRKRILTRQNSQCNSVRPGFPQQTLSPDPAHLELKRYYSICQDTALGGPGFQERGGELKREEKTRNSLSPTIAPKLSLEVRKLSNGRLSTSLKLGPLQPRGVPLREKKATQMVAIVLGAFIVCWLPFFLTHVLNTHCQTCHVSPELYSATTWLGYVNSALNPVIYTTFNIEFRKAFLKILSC
human dopamine D2S receptor, sequence (P14416 1-414 isoform P14416-2): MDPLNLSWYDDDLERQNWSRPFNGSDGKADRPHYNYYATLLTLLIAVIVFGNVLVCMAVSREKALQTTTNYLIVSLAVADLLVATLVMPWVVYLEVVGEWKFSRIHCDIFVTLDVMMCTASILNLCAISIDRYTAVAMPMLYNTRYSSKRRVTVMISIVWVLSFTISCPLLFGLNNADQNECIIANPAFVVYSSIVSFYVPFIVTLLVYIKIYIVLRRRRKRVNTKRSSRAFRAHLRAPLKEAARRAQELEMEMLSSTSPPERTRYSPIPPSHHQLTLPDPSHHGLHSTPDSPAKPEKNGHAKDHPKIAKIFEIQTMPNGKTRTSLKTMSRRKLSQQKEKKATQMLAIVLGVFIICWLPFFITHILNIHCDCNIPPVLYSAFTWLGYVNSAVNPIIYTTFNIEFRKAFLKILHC

Turning to `CN(C)CCO[C@@]1(c2ccccc2)C[C@@H]2CC[C@@]1(C)C2(C)C` [Cpd A, (1S,2R,4S)-(+)-2-[N,N-(dimethylaminoethoxy)]-2-phenyl-1,7,7-trimethyl-bicyclo[2.2.1]heptane], the inhibition at 1 µM was 29% in assay [1]; 32% in assay [2]; 93% in assay [4]; 79% in assay [5]; 44% in assay [6]. Moreover, the “%inhibition σ” value in assay [3] came to 56%.

With `CN(C)CCO[C@]1(c2ccccc2)C[C@H]2CC[C@]1(C)C2(C)C` [Cpd B, (1R,2S,4R)-(-)-2-[N,N-(dimethylaminoethoxy)]-2-phenyl-1,7,7-trimethyl-bicyclo[2.2.1]heptane], the inhibition at 1 µM in assay [1] is 74%; in assay [2], 89%; in assay [4] it was 99%; in assay [5], 99%; in assay [6], 88%. The “%inhibition σ” value in assay [3] came out at 72%.

With `CNCCO[C@@]1(c2ccccc2)C[C@@H]2CC[C@@]1(C)C2(C)C` [Cpd C, (1S,2R,4S)-(+)-2-methylaminoethoxy-2-phenyl-1,7,7-trimethyl-bicyclo[2.2.1]heptane], the inhibition at 1 µM was determined as 10% in assay [1] (setting [7]); 24% in assay [2] (setting [7]); 89% in assay [4]; 65% in assay [5]; 36% in assay [6].

In the case of `CNCCO[C@]1(c2ccccc2)C[C@H]2CC[C@]1(C)C2(C)C` [Cpd D, (1R,2S,4R)-(-)-2-methylaminoethoxy-2-phenyl-1,7,7-trimethyl-bicyclo[2.2.1]heptane], the inhibition at 1 µM in assay [1] (setting [7]) was found to be 57%; in assay [2] (setting [7]), 81%; in assay [4], 98%; in assay [5] it was 97%; in assay [6] it was 89%.
